Results reported in US6399654B1, “Biflavanoids and derivatives thereof as antiviral agents” (priority 1995, dated 2002).
Structures can show the parent of a compound that is named as a salt. Where two headings read alike, the source gives them in different places.

Experiments:
HIV-1 RT = molecular target: T1, HIV-1 RT (Human immunodeficiency virus type 1 group M subtype B, UniProt P03366); test: Anti-HIV-1 RT assay (recombinant enzyme); format: biochemical; conditions: for inhibition at 200 µg/mL: read-out: Anti-HIV-1 RT % Inhibition at 200 μg/ml
T1 construct: made in house; host or cells: Escherichia coli

Hepatitis B Virus (HBV) [1] = test: Inhibition of HBV replication in 2.2.15 cells, extracellular (virion) HBV DNA; conditions: for fold less active/potent than robustaflavone against HBV: in vitro assay against HBV; for SI (CC50/EC90), HBV Virion: selective index;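 for all read-outs here: extracellular virion HBV DNA in culture medium measured by slot blot hybridization with a 32P-labeled HBV probe, quantified against HBV DNA standards, after 9 days of daily dosing, compared with day 0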
Hepatitis B Virus (HBV) [2] = test: HBV replication intermediates (RI, intracellular HBV DNA) in 2.2.15 cells; format: cell-based
Protocol: Test compounds were added daily for a nine continuous day period; the culture medium was collected and stored for analysis of extracellular (virion) HBV DNA after 0, 3, 6, and 9 days of treatment. The treated cells were lysed 24 hours following day 9 of treatment for the analysis of intracellular HBV genomic forms. The overall levels of HBV DNA (both extracellular and intracellular DNA) and the relative rate of HBV replication (intracellular DNA) were analyzed quantitatively. The analysis was performed using blot hybridization techniques and [^32P]-labeled HBV-specific probes. The HBV DNA levels were measured by comparison to known amounts of HBV DNA standards applied to every nitrocellulose membrane (gel or slot blot). An AMBIS beta scanner, which measures the radioactive decay of the hybridized probes directly from the nitrocellulose membranes, was used for the quantitative analysis. Standard curves, generated by multiple analyses, were used to correlate CPM measurements made by the beta scanner with relative levels of target HBV DNA. The levels of HBV virion DNA released into the culture medium were analyzed by a slot blot hybridization procedure. HBV DNA levels were then compared to those at day 0 to determine the effect of the test compound. A known positive drug was evaluated in parallel with test compounds in each test.

Hepatitis B Virus (HBV) [3] = test: HBV proteins and nucleic acids in 2.2.15 cells; format: cell-based; conditions: Day 9, 2.2.15 cells; robustaflavone @10 μM
Protocol: Values of HBV proteins were determined by semi-quantitative EIA performed as previously described.^83 For the EIA analyses, test samples-were diluted (2- to 10-fold) so that the assay values produced were within the linear dynamic range of the EIA assays. Standard curves using serial dilutions of positive assay controls were included in each set of EIA analyses. HBV surface antigen ([…]), preSI protein, and HBc antigen ([…]) are released as extracellular products and were therefore analyzed in culture medium obtained 24 h following the last treatment dose of oligonucleotides or 2′, 3′-ddc. HBV core antigen (HBcAg) is an intracellular viral protein and was assayed in cell extracts produced by Triton-X-100 lysis.^83
Cultures for HBV RNA were maintained on 6-well plates, cultures for HBV virion DNA analyses were maintained on either 96- or 24-well plates, and cultures for all other HBV parameters were maintained on 24-well plates.
The concentrations of antiviral agents used in these studies approximates the EC50 values of the individual agents against intracellular HBV DNA replication intermediates (HBV RI). Cultures were treated with the indicated agents for 9 days using standard procedures. Values reported are the levels of the indicated HBV markers at the end of the treatment period (“DAY 9”) expressed as a percentage (±standard deviation (S.D.) of the average levels in the control cultures at the beginning of the treatment period (“DAY 0”). The method of expression permits an analysis of the variation of the HBV markers in the untreated (control) cultures over the course of the treatment period. HBV nucleic acid levels were measured by standard blot hydridization (dot, Southern, or Northern). HBV protein levels were measured by standard semi-quantitative EIA methods. Cultures for HBV RNA were maintained in 6-well culture plates. The levels of each of two major classes of HBV RNA transcripts are listed separately. Cultures for all other HBV markers were maintained in 24-well culture plates. For each treatment, a total of 4 separate cultures were used for the analysis of each HBV marker at both DAY 0 and DAY 9.
Determination of Mechanism of Action. Measurements of intracellular and extracellular HBV DNA, 3.6 kb and 2.1 kb mRNA fragments, and HBsAg, HBeAg and HBcAg protein markers were conducted as previously described (93).

HCMV = HCMV CPE inhibition in HFF cells; conditions: HFF Cells
[4] = HIV-1 RT IC50 (50% inhibition dose)
[5] = read-out: EC50 (50% effective dose), HBV Virion, 2.2.15 cells, extracellular (virion) HBV DNA, 9 days treatment
[6] = read-out: EC90 (90% effective dose), HBV Virion, 2.2.15 cells, extracellular (virion) HBV DNA, 9 days treatment
[7] = Anti-HIV-1 RT IC50, values in parentheses or in words
[8] = values in parentheses or in words

**Q.** `COc1ccc([C@@H]2Oc3cc(OC)cc(OC)c3C(=O)[C@H]2c2c(OC)cc(OC)c3c(=O)cc(-c4ccc(OC)c(OC)c4)oc23)cc1` [morelloflavone heptamethyl ether (8), morelloflavone heptamethyl ether] was tested. Which “activity against HIV-1 RT (in words)” value (HIV-1 RT) did it give?
**A.** Its value is “inactive”.

**Q.** For `COc1cccc2c1C(=O)c1c(O)c3c(c(O)c1C2=O)C[C@@](O)(C(C)=O)C[C@@H]3O[C@H]1C[C@H](N)[C@H](O)[C@H](C)O1` [daunomycin, reference compound], which IC50 (HIV-1 RT; [4]) is on record?
**A.** The IC50 was 237 µM.

**Q.** `O=C1c2c(O)cc(O)cc2O[C@@H](c2ccc(O)cc2)[C@@H]1c1c(O)cc(O)c2c(=O)cc(-c3ccc(O)cc3)oc12` [Volkensiflavone (5), volkensiflavone] was tested. Which “activity against HIV-1 RT (in words)” value (HIV-1 RT) did it give?
**A.** Its value is “weakly active”.

**Q.** And the inhibition at 200 µg/mL (HIV-1 RT)?
**A.** The inhibition at 200 µg/mL was 45.3%.

**Q.** With `CC(=O)Oc1ccc(-c2cc(=O)c3c(OC(C)=O)c(-c4cc(-c5cc(=O)c6c(OC(C)=O)cc(OC(C)=O)cc6o5)ccc4OC(C)=O)c(OC(C)=O)cc3o2)cc1` [Robustaflavone Hexaacetate, robustaflavone hexaacetate] as the compound, how does the “fold less active/potent than robustaflavone against HBV” value (Hepatitis B Virus (HBV) [1]) read?
**A.** Its value is “approximately three-fold”.

**Q.** What about the EC50 (Hepatitis B Virus (HBV) [1]; [5]) of the same compound?
**A.** The EC50 was 730 nM.

**Q.** What about the EC90 (Hepatitis B Virus (HBV) [1]; [6]) of the same compound?
**A.** The EC90 was 2.8 µM.

**Q.** What about the “SI (CC50/EC90), HBV Virion” value (Hepatitis B Virus (HBV) [1]) of the same compound?
**A.** The value was > 360.

**Q.** And the “SI (CC50/EC90), second value in parentheses” value (Hepatitis B Virus (HBV) [2]; Table 2, value in parentheses, not explained)?
**A.** The value was 163.

**Q.** What about the EC50 (Hepatitis B Virus (HBV) [2]; Table 2, value in parentheses, not explained, read-out: EC50, second value in parentheses) of the same compound?
**A.** Its EC50 is 3.9 µM.

**Q.** What about the EC90 (Hepatitis B Virus (HBV) [2]; Table 2, value in parentheses, not explained, read-out: EC90, second value in parentheses) of the same compound?
**A.** The EC90 was 11 µM.

**Q.** `Nc1ccn([C@H]2CC[C@@H](CO)O2)c(=O)n1` [2′,3′-ddC, 2′,3′-dideoxycytosine, reference compound] was tested. Which EC50 (Hepatitis B Virus (HBV) [1]; [5]) did it give?
**A.** The EC50 was 1800 nM.

**Q.** What about the EC50 (Hepatitis B Virus (HBV) [1]; read-out: EC50, concentration necessary to decrease HBV DNA levels by 50%, 2.2.15 cells, combinations: with respect to RF) of the same compound?
**A.** Its EC50 is 1400 nM.

**Q.** What about the EC90 (Hepatitis B Virus (HBV) [1]; [6]) of the same compound?
**A.** The EC90 was 94 µM.

**Q.** What about the “SI (CC50/EC90), HBV Virion” value (Hepatitis B Virus (HBV) [1]) of the same compound?
**A.** Its value is 28.

**Q.** What about the “Viral Antigens: HBeAg” value (Hepatitis B Virus (HBV) [3]) of the same compound?
**A.** The value was 88 ± 10 % of Day 0 Control.

**Q.** What about the “Viral Antigens: HBsAg” value (Hepatitis B Virus (HBV) [3]) of the same compound?
**A.** Its value is 90 ± 12 % of Day 0 Control.

**Q.** And the “Viral Antigens: HbcAG” value (Hepatitis B Virus (HBV) [3])?
**A.** The value was 91 ± 9 % of Day 0 Control.

**Q.** What about the “Viral DNA: Extracellular DNA” value (Hepatitis B Virus (HBV) [3]) of the same compound?
**A.** Its value is 1 ± 1 % of Day 0 Control.

**Q.** And the “Viral DNA: Intracellular DNA” value (Hepatitis B Virus (HBV) [3])?
**A.** Its value is 6 ± 1 % of Day 0 Control.

**Q.** What about the “Viral mRNA: 3.6 kb and 2.1 kb mRNA (first column)” value (Hepatitis B Virus (HBV) [3]) of the same compound?
**A.** Its value is 94 ± 7 % of Day 0 Control.

**Q.** What about the “Viral mRNA: 3.6 kb and 2.1 kb mRNA (second column)” value (Hepatitis B Virus (HBV) [3]) of the same compound?
**A.** The value was 87 ± 9 % of Day 0 Control.

**Q.** What about the EC50 (Hepatitis B Virus (HBV) [2]; 2.2.15 cells, read-out: EC50, HBV replication intermediates (RI) (intracellular DNA)) of the same compound?
**A.** The EC50 was 2.4 µM.

**Q.** How did the “HIV-1 RT IC50 (50% inhibition dose)” value (HIV-1 RT) turn out when `O=C1C[C@@H](c2ccc(O)c(O)c2)Oc2c1c(O)cc(O)c2[C@H]1C(=O)c2c(O)cc(O)cc2O[C@@H]1c1ccc(O)cc1` [GB-2a(16), GB-2a] was run?
**A.** Its value is 94.6 µg/mL.

**Q.** And the “Anti-HIV-1 RT % Inhibition at 200 μg/ml” value (HIV-1 RT)?
**A.** Its value is 96%.

**Q.** And the IC50 (HIV-1 RT; values in parentheses or in words, read-out: Anti-HIV-1 RT IC50)?
**A.** Its IC50 is 170 µM.

**Q.** With `O=c1cc(-c2ccc(O)cc2)oc2cc(O)cc(O)c12` [Apigeriin, 4′,5,7-trihydroxyflavone, reference compound] as the compound, how does the “activity against HIV-1 RT (in words)” value (HIV-1 RT) read?
**A.** The value was “moderate activity”.

**Q.** And the IC50 (HIV-1 RT; [7])?
**A.** Its IC50 is 443 µM.

**Q.** And the inhibition at 200 µg/mL (HIV-1 RT)?
**A.** Its inhibition at 200 µg/mL is 72%.

**Q.** Which “HCMV CPE Inhibition EC50” value (HCMV) does the source give for `Nc1nc2c(ncn2COC(CO)CO)c(=O)[nH]1` [GVC, reference compound] here?
**A.** Its value is 0.4 µg/mL.

**Q.** How did the “activity against HIV-1 RT (in words)” value (HIV-1 RT) turn out when `COc1ccc(C2CC(=O)c3c(OC)cc(OC)c(C4C(=O)c5c(OC)cc(OC)cc5OC4c4ccc(OC)cc4)c3O2)cc1` (stereo not drawn) [GB-1a Me6(14), GB-1a hexamethyl ether] was run?
**A.** The value was “inactive”.

**Q.** What about the “Anti-HIV-1 RT IC50” value (HIV-1 RT; [8]) of the same compound?
**A.** The value was “Inactive”.

**Q.** Which “anti-HBV activity (in words)” value (Hepatitis B Virus (HBV) [1]; 2.2.15 cells) does the source give for `O=c1cc(-c2ccc(OS(=O)(=O)O)c(-c3c(OS(=O)(=O)O)cc4oc(-c5ccc(OS(=O)(=O)O)cc5)cc(=O)c4c3O)c2)oc2cc(OS(=O)(=O)O)cc(O)c12` [Robustaflavone tetrasulfate (17), robustaflavone-7,4′,7″,4′″-tetrasulfate K-salt] here?
**A.** Its value is “extremely effective”.

**Q.** What about the EC50 (Hepatitis B Virus (HBV) [1]; Hepatitis B virus, 216 h, read-out: EC50 (50% effective dose), HBV Virion, 2.2.15 cells, extracellular (virion) HBV DNA, 9 days treatment) of the same compound?
**A.** Its EC50 is 400 nM.

**Q.** And the EC90 (Hepatitis B Virus (HBV) [1]; Hepatitis B virus, 216 h, read-out: EC90 (90% effective dose), HBV Virion, 2.2.15 cells, extracellular (virion) HBV DNA, 9 days treatment)?
**A.** Its EC90 is 3.6 µM.

**Q.** And the “SI (CC50/EC90), HBV Virion” value (Hepatitis B Virus (HBV) [1])?
**A.** The value was 110.

**Q.** And the IC50 (HIV-1 RT; [7])?
**A.** Its IC50 is 144 µM.

**Q.** What about the IC50 (HIV-1 RT; [4]) of the same compound?
**A.** Its IC50 is 168 µM.

**Q.** What about the inhibition at 200 µg/mL (HIV-1 RT) of the same compound?
**A.** The inhibition at 200 µg/mL was 95.5%.

**Q.** Which results are given for `COc1ccc(-c2cc(=O)c3c(OC)c(-c4cc(-c5cc(=O)c6c(OC)cc(OC)cc6o5)ccc4OC)c(OC)cc3o2)cc1` [Robustaflavone hexamethyl ether, hexa-O-methylrobustaflavone]?
**A.** fold less active/potent than robustaflavone against HBV (Hepatitis B Virus (HBV) [1]): ~10 fold; EC50 (Hepatitis B Virus (HBV) [1]; [5]): 2900 nM; EC90 (Hepatitis B Virus (HBV) [1]; [6]): 28 µM; SI (CC50/EC90), HBV Virion (Hepatitis B Virus (HBV) [1]): >36

**Q.** Which results are given for `O=C1CC(c2ccc(O)cc2)Oc2cc(O)cc(O)c21` (stereo not drawn) [Naringenin, 4′,5,7-trihydroxyflavanone, reference compound]?
**A.** activity against HIV-1 RT (in words) (HIV-1 RT): slight inhibition; inhibition at 200 µg/mL (HIV-1 RT): 34.9%

**Q.** What does the source list for `O=C1C[C@@H](c2ccc(O)cc2)Oc2c1c(O)cc(O[C@@H]1O[C@H](CO)[C@@H](O)[C@H](O)[C@H]1O)c2[C@H]1C(=O)c2c(O)cc(O)cc2O[C@@H]1c1ccc(O)cc1` [GB-1a glucoside (15), GB-1a 7″-O-b-glucoside]?
**A.** activity against HIV-1 RT (in words) (HIV-1 RT): no activity; Anti-HIV-1 RT % Inhibition at 200 μg/ml (HIV-1 RT): 1.46%; Anti-HIV-1 RT IC50 (HIV-1 RT; [8]): Inactive
